# Paper PMC12435366, “Maleic anhydride derived diphosphines: adaptable chelators for receptor-targeted ^99mTc, ^64Cu and ^188Re radiotracers” (Chemical Science, 2025)
# What was measured:
# [1] = system: PSMA-expressing DU145-PSMA+ prostate cancer cells; experiment: In vitro uptake of 99mTc tracers in DU145-PSMA+ cells; assay type: cell-based; settings: for uptake in DU145-PSMA+ cells (% added radioactivity): 50 kBq purified tracer, 5 × 10^5 cells seeded per well, 37 °C, 1 h incubation, mean ± SD, biological triplicate; for blocking of cell uptake by PSMA inhibitor PMPA: co-incubation with PMPA
# Protocol: (§1) To compare the relative uptake and specificity of the new radiotracers for PSMA, [^99mTcO2(DP^Ph-PSMAt)2]^+, [^99mTcO2(DP^An-PSMAt)2]^+ and [^99mTcO2(DP^MEP-PSMAt)2]^+ (50 kBq) were purified from unreacted ^99mTc precursors and excess DP-PSMAt peptide, and each incubated with PSMA-expressing DU145-PSMA+ prostate cancer cells[33] or LNCaP prostate cancer cells (5 × 10^5 cells). After 1 h incubation, uptake of each radiotracer was quantified. […]
# (§2) 4.9 99mTc uptake in DU145, DU145-PSMA+ and LNCaP cells
# (§3) The following experiment was performed in biological triplicate.
# (§4) A panel of cell lines were selected that either expressed GCP(II)/PSMA (DU145-PSMA+ (genetically modified to express PSMA),12 and LNCaP (CRL‐1740)), or had low GCP(II)/PSMA expression (DU145 (HTB-81)). All cell lines were cultured in RPMI 1640 medium (R0883, Sigma) containing 10% foetal bovine serum, 2 mM L-glutamine, and 100 U mL−1 penicillin and 100 µg mL−1 streptomycin. Cells were maintained at 37 °C and 5% CO 2. Cells were seeded in 6-well plates at a density of 5 × 10^5 cells per well […]
# in 2 mL complete media to achieve 70–80% confluency the following day. Prior to treating cells, cell medium (1 mL/well) was replaced. Solutions containing either [99mTcO2(DPPh-PSMAt)2]+, [99mTcO2(DPAn-PSMAt)2]+ or [99mTcO2(DPMEP-PSMAt)2]+ (50 kBq in 10 μL of PBS, >95% radiochemical purity) were added to each well, and the cells incubated at 37 °C for 1 h. Uptake studies were also performed after a 2 min incubation with the PSMA inhibitor 2 -(phosphonomethyl)pentane -1,5-dioic acid (PMPA; 30 µL of 750 µM PMPA solution/well). After 60 min incubation, the supernatant was removed, and the cells were washed with PBS solution (2 × 1 mL). The cells were lysed with ice cold radioimmunoprecipitation assay buffer (RIPA buffer, 500 μL; 150 mM sodium chloride, 0.1% w/w sodium dodecyl sulfate (SDS), 0.5% w/w sodium deoxycholate (NaDOC), 1% w/w Triton-X) and samples were collected for radioactivity counting. Results are depicted as means ± SD of independent biological experiments (performed on different days with different radiotracer preparations). […]
# Biodistribution studies using 99mTc radiotracers were performed once a tumour had reached 150– 300 mm3 in volume (2–7 weeks after injection).
# SCID/beige mice bearing DU145-PSMA+ prostate cancer tumour xenografts
# SPECT/CT scanning and biodistribution studies: The 99mTc radiotracers (3.9–4.5 MBq, 3 mice per group, containing DPAn-PSMAt = 3.0 µg or DPMEP-PSMAt = 3.5 µg) were administered via tail vein injection under isoflurane anaesthesia. Following this, SPECT/CT scanning was carried out in one of two methods outlined below, to maintain 2 h biodistribution timepoints : i. The mouse was positioned on a single heated bed in a nanoScan SPECT/CT 80W scanner (Mediso Ltd., Budapest, Hungary) calibrated for 99mTc. A helical CT scan was acquired (50 kV X-ray source, 170 ms exposure time in 360 projections over 3 min). At 15 min post -injection, whole body SPECT scans were acquired (1 × 15 min, 3 × 30 min, conducted sequentially) with a frame time of 13 s and 26 s (using a 4-head scanner with 4 × 9 [1.4 mm] pinhole collimators
# [2] = system: parental DU145 cells that do not express PSMA; experiment: In vitro uptake of 99mTc tracers in parental DU145 cells; assay type: cell-based; settings: PSMA-negative DU145 cells, 1 h
# Protocol: as §1, §2, §3, §4
# in 2 mL complete media to achieve 70–80% confluency the following day. […] The cells were lysed with ice cold radioimmunoprecipitation assay buffer (RIPA buffer, 500 μL; 150 mM sodium chloride, 0.1% w/w sodium dodecyl sulfate (SDS), 0.5% w/w sodium deoxycholate (NaDOC), 1% w/w Triton-X) and samples were collected for radioactivity counting. […]
compound,measurement,setting,value
"COCCOc1ccc(P(/C(C(=O)O)=C(/C(=O)NCCOCCOCCOCCOCCC(=O)NCCCC[C@H](NC(=O)N[C@@H](CCC(=O)O)C(=O)O)C(=O)O)P(c2ccc(OCCOC)cc2)c2ccc(OCCOC)cc2)c2ccc(OCCOC)cc2)cc1 [[^99mTcO2(DP^MEP-PSMAt)2]^+, metal not drawn]",uptake in DU145-PSMA+ cells (% added radioactivity),[1],2.7 ± 0.8 %AR
same,mean difference in uptake compared with [^99mTcO2(DP^Ph-PSMAt)2]^+,"[1]; DU145-PSMA+ cells, 1 h",12.7 %AR
same,blocking of cell uptake by PSMA inhibitor PMPA,"[1]; DU145-PSMA+ cells, 1 h",blocked
same,uptake in parental DU145 cells,[2],negligible uptake
"COc1ccc(P(/C(C(=O)O)=C(/C(=O)NCCOCCOCCOCCOCCC(=O)NCCCC[C@H](NC(=O)N[C@@H](CCC(=O)O)C(=O)O)C(=O)O)P(c2ccc(OC)cc2)c2ccc(OC)cc2)c2ccc(OC)cc2)cc1 [[^99mTcO2(DP^An-PSMAt)2]^+, metal not drawn]",uptake in DU145-PSMA+ cells (% added radioactivity),[1],8.9 ± 2.1 %AR
same,mean difference in uptake compared with [^99mTcO2(DP^MEP-PSMAt)2]^+,"[1]; DU145-PSMA+ cells, 1 h",6.2 %AR
same,mean difference in uptake compared with [^99mTcO2(DP^Ph-PSMAt)2]^+,"[1]; DU145-PSMA+ cells, 1 h",6.5 %AR
same,blocking of cell uptake by PSMA inhibitor PMPA,"[1]; DU145-PSMA+ cells, 1 h",blocked
same,uptake in parental DU145 cells,[2],negligible uptake
